Inhibition data for 18 compounds are collected here from patent publication US8273754B2, “Substituted 1H-pyrazolo[3,4-D]pyrimidine-6-amine compounds” (ArQule, Inc., priority 2008, dated 2012).

Read-outs that look alike come from different tables or passages of the source. A value given as a limit tells only on which side of the number the result lay.

For the experiment, the system named is cancer cells. Briefly: MTS cell growth inhibition assay (72 hours). In kind it is cell-based. The method, then: Cells were maintained at 37° C., 5% CO2 in DMEM media supplemented with 1% fetal bovine serum, penicillin/streptomycin and fungizone (Invitrogen). Cells were seeded into 96-well tissue culture plates at 3000 per well and cultured at 37° C. for 18 hours. Test compounds were dissolved and diluted to 300× in DMSO then further diluted 1:40 in DMEM before addition to cells (1:7.5 dilution). Cells were incubated with test compounds for 72 hours followed by incubation with tetrazolium compound (3-(4,5-dimethylthiazol-2-yl)-5-(3-carboxymethoxyphenyl)-2-(4-sulfophenyl)-2H-tetrazolium, inner salt; MTS) and the electron coupling reagent, phenazine methosulfate (PMS) for 4 hours. […] The ability of compounds to inhibit cell growth in this assay is correlated with the reduction of dehydrogenase enzyme activity found in metabolically active cells. The measurement of the absorbance of the formazan was assessed using an ENVISION™ (Perkin Elmer) microplate reader at 492 nm. The calculated IC50 value is the concentration of the test compound that causes a 50% decrease in the absorbance. […] A=>79% inhibition, B=>50 to 79% inhibition, C=<50% inhibition.

The mark [1] stands for this setting: Homo sapiens, DLD-1, 72 h, DLD-1 cells, read-out: DLD-1 MTS 72 hr at 10 μM.
The mark [2] stands for this setting: Homo sapiens, KATO III, 72 h, KATO III cells, read-out: KATO III MTS 72 hr at 10 μM.
[3] abbreviates: Homo sapiens, MDA-MB-231, 72 h, MDA-MB-231 cells, read-out: MDA-MB-231 MTS 72 hr at 10 μM.
Where [4] appears, read: Homo sapiens, NCI-H1299, 72 h, NCI-H1299 cells, read-out: NCI-H1299 MTS 72 hr at 10 μM.
The mark [5] stands for this setting: PaCa-2, 72 h, PACA-2 cells, read-out: PACA-2 MTS 72 hr at 10 μM.

Turning to `Nc1nc(NC2Cc3ccccc3N(S(=O)(=O)c3ccc(-c4ccccc4)cc3)C2)c2cn[nH]c2n1` (stereo not drawn) [Compound 16, N4-(1-(biphenyl-4-ylsulfonyl)-1,2,3,4-tetrahydroquinolin-3-yl)-1H-pyrazolo[3,4-d]pyrimidine-4,6-diamine], the inhibition at 10 µM is, setting by setting: under setting [1], 50 to 79%; under setting [2], 50 to 79%; under setting [3], less than 50%; under setting [4], less than 50%; under setting [5], 50 to 79%.
For `Nc1nc(NC2Cc3ccccc3N(S(=O)(=O)c3ccc(F)cc3)C2)c2cn[nH]c2n1` (stereo not drawn) [Compound 20, N4-(1-(4-fluorophenylsulfonyl)-1,2,3,4-tetrahydroquinolin-3-yl)-1H-pyrazolo[3,4-d]pyrimidine-4,6-diamine], the inhibition at 10 µM is less than 50% under setting [1]; less than 50% under setting [2]; less than 50% under setting [3]; less than 50% under setting [4]; less than 50% under setting [5].
Regarding `Nc1nc(NC2Cc3ccccc3N(S(=O)(=O)Cc3ccccc3)C2)c2cn[nH]c2n1` (stereo not drawn) [Compound 21, N4-(1-(benzylsulfonyl)-1,2,3,4-tetrahydroquinolin-3-yl)-1H-pyrazolo[3,4-d]pyrimidine-4,6-diamine], the inhibition at 10 µM reads like this: under setting [1], greater than 79%; under setting [2], greater than 79%; under setting [3], 50 to 79%; under setting [4], less than 50%; under setting [5], greater than 79%.
For `Cc1ccc(S(=O)(=O)N2CC(Nc3nc(N)nc4[nH]ncc34)Cc3ccccc32)cc1` (stereo not drawn) [Compound 22, N4-(1-tosyl-1,2,3,4-tetrahydroquinolin-3-yl)-1H-pyrazolo[3,4-d]pyrimidine-4,6-diamine], the inhibition at 10 µM runs as follows: under setting [1], less than 50%; under setting [2], less than 50%; under setting [3], less than 50%; under setting [4], less than 50%; under setting [5], less than 50%.
In the case of `COc1cccc(S(=O)(=O)N2CC(Nc3nc(N)nc4[nH]ncc34)Cc3ccccc32)c1` (stereo not drawn) [Compound 24, N4-(1-(3-methoxyphenylsulfonyl)-1,2,3,4-tetrahydroquinolin-3-yl)-1H-pyrazolo[3,4-d]pyrimidine-4,6-diamine], the inhibition at 10 µM is less than 50% under setting [1]; greater than 79% under setting [2]; less than 50% under setting [3]; less than 50% under setting [4]; less than 50% under setting [5].
As to `Nc1nc(NC2Cc3ccccc3N(S(=O)(=O)c3ccc(Oc4ccccc4)cc3)C2)c2cn[nH]c2n1` (stereo not drawn) [Compound 27, N4-(1-(4-phenoxyphenylsulfonyl)-1,2,3,4-tetrahydroquinolin-3-yl)-1H-pyrazolo[3,4-d]pyrimidine-4,6-diamine], the inhibition at 10 µM reads like this: under setting [1], greater than 79%; under setting [2], greater than 79%; under setting [3], greater than 79%; under setting [4], 50 to 79%; under setting [5], greater than 79%.
Consider `CS(=O)(=O)N1CC(Nc2nc(N)nc3[nH]ncc23)Cc2ccccc21` (stereo not drawn) [Compound 29, N4-(1-(methylsulfonyl)-1,2,3,4-tetrahydroquinolin-3-yl)-1H-pyrazolo[3,4-d]pyrimidine-4,6-diamine], for which the inhibition at 10 µM under setting [1] was less than 50%; the inhibition at 10 µM under setting [2] was less than 50%; the inhibition at 10 µM under setting [3] was less than 50%; the inhibition at 10 µM under setting [4] is less than 50%; the inhibition at 10 µM under setting [5] is less than 50%.
Consider `N#Cc1ccc(S(=O)(=O)N2CC(Nc3nc(N)nc4[nH]ncc34)Cc3ccccc32)cc1` (stereo not drawn) [Compound 30, 4-(3-(6-amino-1H-pyrazolo[3,4-d]pyrimidin-4-ylamino)-3,4-dihydroquinolin-1(2H)-ylsulfonyl)benzonitrile], for which the inhibition at 10 µM under setting [1] was less than 50%; the inhibition at 10 µM under setting [2] is less than 50%; the inhibition at 10 µM under setting [3] is less than 50%; the inhibition at 10 µM under setting [4] was less than 50%; the inhibition at 10 µM under setting [5] is less than 50%.
Regarding `Nc1nc(NC2Cc3ccccc3N(S(=O)(=O)c3cc(Cl)ccc3Cl)C2)c2cn[nH]c2n1` (stereo not drawn) [Compound 32, N4-(1-(2,5-dichlorophenylsulfonyl)-1,2,3,4-tetrahydroquinolin-3-yl)-1H-pyrazolo[3,4-d]pyrimidine-4,6-diamine], the inhibition at 10 µM under setting [1] was 50 to 79%; the inhibition at 10 µM under setting [2] was greater than 79%; the inhibition at 10 µM under setting [3] was less than 50%; the inhibition at 10 µM under setting [4] was less than 50%; the inhibition at 10 µM under setting [5] was less than 50%.
In the case of `Nc1nc(NC2Cc3ccccc3N(S(=O)(=O)c3ccc4ccccc4c3)C2)c2cn[nH]c2n1` (stereo not drawn) [Compound 34, N4-(1-(naphthalen-2-ylsulfonyl)-1,2,3,4-tetrahydroquinolin-3-yl)-1H-pyrazolo[3,4-d]pyrimidine-4,6-diamine], the inhibition at 10 µM was less than 50% under setting [1]; less than 50% under setting [2]; less than 50% under setting [3]; less than 50% under setting [4]; less than 50% under setting [5].
Turning to `Nc1nc(NC2Cc3ccccc3N(S(=O)(=O)c3ccc(Cl)cc3)C2)c2cn[nH]c2n1` (stereo not drawn) [Compound 35, N4-(1-(4-chlorophenylsulfonyl)-1,2,3,4-tetrahydroquinolin-3-yl)-1H-pyrazolo[3,4-d]pyrimidine-4,6-diamine], the inhibition at 10 µM was less than 50% under setting [1]; less than 50% under setting [2]; less than 50% under setting [3]; less than 50% under setting [4]; less than 50% under setting [5].
Consider `Nc1nc(NC2Cc3ccccc3N(S(=O)(=O)c3cc(Cl)cc(Cl)c3)C2)c2cn[nH]c2n1` (stereo not drawn) [Compound 36, N4-(1-(3,5-dichlorophenylsulfonyl)-1,2,3,4-tetrahydroquinolin-3-yl)-1H-pyrazolo[3,4-d]pyrimidine-4,6-diamine], for which the inhibition at 10 µM was less than 50% under setting [1]; 50 to 79% under setting [2]; less than 50% under setting [3]; less than 50% under setting [4]; less than 50% under setting [5].
In the case of `Cn1cnc(S(=O)(=O)N2CC(Nc3nc(N)nc4[nH]ncc34)Cc3ccccc32)c1` (stereo not drawn) [Compound 38, N4-(1-(1-methyl-1H-imidazol-4-ylsulfonyl)-1,2,3,4-tetrahydroquinolin-3-yl)-1H-pyrazolo[3,4-d]pyrimidine-4,6-diamine], the inhibition at 10 µM runs as follows: under setting [1], less than 50%; under setting [2], less than 50%; under setting [3], less than 50%; under setting [4], less than 50%; under setting [5], less than 50%.
Regarding `Nc1nc(NC2Cc3ccccc3N(S(=O)(=O)c3cccc(Br)c3)C2)c2cn[nH]c2n1` (stereo not drawn) [Compound 41, N4-(1-(3-bromophenylsulfonyl)-1,2,3,4-tetrahydroquinolin-3-yl)-1H-pyrazolo[3,4-d]pyrimidine-4,6-diamine], the inhibition at 10 µM by setting is: under setting [1], less than 50%; under setting [2], greater than 79%; under setting [3], less than 50%; under setting [4], less than 50%; under setting [5], less than 50%.
Consider `Nc1nc(NC2Cc3ccccc3N(S(=O)(=O)c3ccc(C(F)(F)F)cc3)C2)c2cn[nH]c2n1` (stereo not drawn) [Compound 44, N4-(1-(4-(trifluoromethyl)phenylsulfonyl)-1,2,3,4-tetrahydroquinolin-3-yl)-1H-pyrazolo[3,4-d]pyrimidine-4,6-diamine], for which the inhibition at 10 µM by setting is: under setting [1], less than 50%; under setting [2], less than 50%; under setting [3], less than 50%; under setting [4], less than 50%; under setting [5], less than 50%.
As for `Nc1nc(NC2Cc3ccccc3N(S(=O)(=O)c3ccc(F)c(F)c3)C2)c2cn[nH]c2n1` (stereo not drawn) [Compound 46, N4-(1-(3,4-difluorophenylsulfonyl)-1,2,3,4-tetrahydroquinolin-3-yl)-1H-pyrazolo[3,4-d]pyrimidine-4,6-diamine], the inhibition at 10 µM is, setting by setting: under setting [1], less than 50%; under setting [2], less than 50%; under setting [3], less than 50%; under setting [4], less than 50%; under setting [5], less than 50%.
With `Nc1nc(NC2Cc3ccccc3N(S(=O)(=O)c3cccc(Cl)c3Cl)C2)c2cn[nH]c2n1` (stereo not drawn) [Compound 57, N4-(1-(2,3-dichlorophenylsulfonyl)-1,2,3,4-tetrahydroquinolin-3-yl)-1H-pyrazolo[3,4-d]pyrimidine-4,6-diamine], the inhibition at 10 µM reads like this: under setting [1], less than 50%; under setting [2], less than 50%; under setting [3], less than 50%; under setting [4], less than 50%; under setting [5], less than 50%.
As to `CCc1ccc(S(=O)(=O)N2CC(Nc3nc(N)nc4[nH]ncc34)Cc3ccccc32)cc1` (stereo not drawn) [Compound 59, N4-(1-(4-ethylphenylsulfonyl)-1,2,3,4-tetrahydroquinolin-3-yl)-1H-pyrazolo[3,4-d]pyrimidine-4,6-diamine], the inhibition at 10 µM was less than 50% under setting [1]; less than 50% under setting [2]; less than 50% under setting [3]; less than 50% under setting [4]; less than 50% under setting [5].
